# Measured values taken from patent US10617763B2, “Compositions and methods for the treatment of presbyopia” (Presbyopia Therapies, LLC, priority 2013, dated 2020).
# Where “and” joins values, the source holds several entries; their conditions need not be identical. Equal entries are not always repeated. Where two headings read alike, the source gives them in different places.
# What was measured:
# presbyopic subjects = assay: Effect of aceclidine on vision of subjects aged 47 to 67 years (Example 1); type: in vivo, human; conditions: for L Post Dist / L Post Near / R Post Dist / R Post Near: Post Gtt 15″; for L Post Dist: left eye distance vision; for L Post Near: left eye near vision; for R Post Dist: right eye distance vision; for R Post Near: right eye near vision; for Effect: duration of effect
# Method: Example 1 Effect of Aceclidine on Vision of Subjects Aged 47 to 67 Years
# As aceclidine is an […], the clinical effectiveness may vary with different ratios. For the present studies a nearly exact 50:50 ratio of stereoisomers was measured as best determined by polarimetry.
# After administration of the composition all subjects experienced an improvement in their near vision that lasted from 7 to 12 hours.
# eye [1] = assay: Effect of concentration of aceclidine and tropicamide, topical instillation (Example 2); type: in vivo, human
# Text: (§1) All baseline vision data was based on vision corrected with distance contact lenses.
# eye [2] = assay: Effect of concentration of aceclidine, brimonidine, guanfacine, fadolmidine, tropicamide and additives (Example 3); type: in vivo, human
# Method: All percentages are w/v. Scores for nasal congestion, stinging initial, stinging, 3 min, redness initial, redness 15 min, whitening, pain and overall are out of 4.
# “pt” reflects size of print materials, 4 being equivalent to 20/20 vision and 3 to 20/15 vision.
# D/C stands for discontinued after eye washing due to intolerable stinging.
# as §1
# AB4T and AB6T were repeated both monocularly and binocularly.
# eye [3] = assay: Modulation of aceclidine concentrations in a preferred embodiment (Example 6); type: in vivo, human
# Method: Example 6 Modulation of Aceclidine Concentrations in a Preferred Embodiment
# For 1.35% w/v aceclidine— • Stinging on topical instillation 0.25/4.0 (lasting about 2-5 seconds); • Induced redness at 10 minutes: 1.0 to 1.5/4.0; • Induced redness at 30 minutes: 0.0 to 0.25/4.0; • Comfort: very high. • Wetting: very high, the eye maintaining sensation of improved wetting for most of a 24 hour period after a single topical instillation. • Depth of Focus distance: excellent. • Depth of Focus near: excellent.
# In testing the above formulations on several subjects it was discovered that there is a slight range in clinical effect depending on the concentration of aceclidine, where 1.35%-1.55% w/v aceclidine is preferred, but for which 1.35% w/v and 1.45% w/v confer the desired benefits on most subjects.
# Further, it is discovered that the clinical effect of 1.35% w/v aceclidine can be improved when instilled as follows: […]
# [4] = Stability of aceclidine in cold chain storage, HPLC (Example 10); type: physicochemical; conditions: Example 10 composition
# Method: Example 10 Stabile Aceclidine Formulations
# 20 samples of the above composition were divided evenly and stored at 25° C. and 4° C. Prior to storage, initial concentrations of aceclidine were measured using […] (“HPLC”). The amount of aceclidine in each solution was calculated by the area under the principal peak compared to a reference solution of aceclidine. Samples were then subject to storage for 3 months. Aceclidine measurements were taken at 1, 2 and 3 months.
# [5] = tested on: emmetrope over the age of 45; assay: Effects of pilocarpine and aceclidine with or without tropicamide and carrier on near and distance vision (FIG. 1); type: in vivo, human
# Text: Subject is an emmetrope over the age of 45 with a baseline near vision of 20.100 and baseline distance vision of 20.20. Topical administration to the eye of 1% w/v pilocarpine in saline solution results in an improvement of near vision to 20.40 (8a), however this improvement comes at the expense of a reduction in distance vision to 20.100 (8b). […] A proper drug carrier can also have a beneficial effect.
# eye [6] = conditions: for indoor night vision: pH 7.5; for dimming: pH 7.0
# Text: However, because α-2 agonists are shifted to their ionized equilibrium an acidic pH is somewhat offset by the fact such agonists exert greater affect at neutral or alkaline pH. Therefore each α-2 agonist has a preferred pH range depending on its lipophilicity and pKa value when added to the inventive compositions with aceclidine.
# eye [7] = conditions: cited from earlier work
# eye [8] = assay: Compositions containing mannitol with various nonionic surfactants (Example 15, Table 10); parameters: species or system human; conditions: in vivo
# Text: Example 15. Use of a Compound Containing Mannitol with Various Nonionic Surfactants Compositions
# Of those tested only Brij® 35 was marginal due to the significant corneal irritation, hyperemia and […] that resulted.
# Duration was excellent for each nonionic surfactant tested.
# [9] = aceclidine 1.1% w/v plus 0.125% w/v tropicamide (subjects 4 and 5)
# [10] = aceclidine 1.5% w/v, same vehicle, one subject
molecule,measurement,setting,value
"CC(=O)OC1CN2CCC1CC2 (racemic) [Aceclidine, aceclidine]",L Post Dist,presbyopic subjects; [9],20.15 and 20.20
same,L Post Dist,presbyopic subjects; [10],20.20 (2×) and 20.30 and 20.25 (2×)
same,L Post Near,presbyopic subjects; [9],20.15 and 20.25
same,L Post Near,presbyopic subjects; [10],20.15 (3×) and 20.30 and 20.20
same,R Post Dist,presbyopic subjects; [9],20.15 and 20.20
same,R Post Dist,"presbyopic subjects; aceclidine 1.5% w/v in 5.5% HPβCD, 0.75% CMC, 0.25% NaCl, 0.01% BAK, one subject",20.20 (3×) and 20.25 (2×)
same,R Post Near,presbyopic subjects; [9],20.20 and 20.25
same,R Post Near,presbyopic subjects; [10],20.15 (3×) and 20.20 and 20.25
same,Effect,presbyopic subjects; [9],12.00 h and 7.00 h
same,Effect,presbyopic subjects; [10],8.00 h (4×) and 9.00 h
same,Time (hr),eye [1]; duration of the effect,at least 10 hr
same,Miosis (OU) (1 hr),"eye [1]; pupil size, both eyes, 1 hour after topical instillation, baseline pupil 3 mm photopic, 5 mm mesopic",1.63 mm
same,near vision improvement,eye [2]; aceclidine 1.25% w/v (not shown),20.25-20.30
same,duration of corrected near and distance vision to 20.20 or better,eye [2]; aceclidine 1.55% w/v,at least 6 hours
same,size of the pupil,"eye [2]; aceclidine 1.55% w/v, 30 minutes after topical instillation",about 1.63 mm
same,duration (hrs),eye [2]; in vivo,about 7.5 hrs
same,Comfort,eye [3]; 1.35% w/v aceclidine,very high
same,Depth of Focus distance,eye [3]; 1.35% w/v aceclidine,excellent
same,Depth of Focus near,eye [3]; 1.35% w/v aceclidine,excellent
same,Stinging on topical instillation,"eye [3]; 1.35% w/v aceclidine in the preferred embodiment of Example 6, lasting about 2-5 seconds",0.25 /4.0
same,"aceclidine remaining, 4° C., 1 month",[4],93%
same,"aceclidine remaining, 4° C., 2 months",[4],92%
same,"aceclidine remaining, 4° C., 3 months",[4],88%
same,"aceclidine remaining, 4° C., Initial",[4],100%
same,"aceclidine remaining, 25° C., 1 month",[4],92%
same,"aceclidine remaining, 25° C., 2 months",[4],75%
same,"aceclidine remaining, 25° C., 3 months",[4],50%
same,"aceclidine remaining, 25° C., Initial",[4]; pH about 4.75,100%
same,time period of near vision improvement,[5]; 1.55% w/v aceclidine in saline solution,6 h
same,near vision,[5]; aceclidine in carrier plus 0.042% w/v tropicamide,20.15
same,near vision,"[5]; aceclidine in carrier: 5.5% HPβCD, 0.75% CMC, 0.25% NaCl, 0.01% BAK",better than 20.20
same,distance vision,"[5]; miotic in saline solution (1% w/v pilocarpine; 1.55% w/v aceclidine), baseline distance vision 20.20",without any effect on the baseline distance vision
same,near vision,"[5]; miotic in saline solution (1% w/v pilocarpine; 1.55% w/v aceclidine), baseline near vision 20.100",20.40
same,anterior chamber shallowing,eye [6]; with further inclusion of a cycloplegic agent,0.04 mm
Brc1c(NC2=NCCN2)ccc2nccnc12 [brimonidine],"rebound redness, patients",eye [7]; brimonidine 0.20% w/v (Alphagan®) twice daily,25%
same,"tachyphylaxis of pupil modulation, treated subjects","eye [7]; brimonidine 0.20% w/v topically for night vision, within four weeks of use",~100%
CC[C@@H]1C(=O)OC[C@@H]1Cc1cncn1C [pilocarpine],distance blur,eye [7]; pilocarpine instilled monocularly,2-3 lines
same,pupil size,"eye [7]; upon instillation of 1.0% pilocarpine, most subjects",≥ 2.3 mm
Poloxamer 188,Redness 1 hr,eye [8],0.25-2.5
same,Stinging,eye [8],0-2
Poloxamer 407,Redness 1 hr,eye [8],1
same,Stinging,eye [8],0.5
Polyoxyl 35 castor oil,Redness 1 hr,eye [8],0.25
same,Stinging,eye [8],0
Polysorbate 80,Redness 1 hr,eye [8],0.5
same,Stinging,eye [8],0.25
Tyloxapol,Redness 1 hr,eye [8],0.25-2.5
same,Stinging,eye [8],0-2
tropicamide,indoor night vision,eye [6]; 0.035% w/v tropicamide in 1.55% w/v aceclidine composition,slight dimming
same,dimming,eye [6]; 0.040% w/v tropicamide in 1.53% or 1.45% w/v aceclidine composition,moderate dimming
same,indoor night vision,eye [6]; 0.042% w/v tropicamide in 1.55% w/v aceclidine composition,normal indoor night vision
same,dimming,eye [6]; 0.044% w/v tropicamide in 1.53% or 1.45% w/v aceclidine composition,dimming became almost undetectable
same,brow ache,eye [6]; tropicamide 0.01% w/v with aceclidine,slightly reduce brow ache
same,brow ache,eye [6]; tropicamide 0.030% w/v with aceclidine,further reduce brow ache
same,brow ache,eye [6]; tropicamide 0.04% to about 0.07% w/v with aceclidine,completely eliminate brow ache
